Measured values as given in US20250228840A1, “METHODS OF TREATING SJÖGREN-LARSSEN SYNDROME” (Aldeyra Therapeutics, Inc., priority 2022, published 2025).
Entries after “also recorded” stand apart in the source; their conditions may differ. Values belong to the compound of their own block, whether it stands above or below them.

Assays:
[1] = Exemplary PK results after oral administration of I-1 unit dosage form, daily dose 20-1200 mg (Table 2); format: in vivo; conditions: human subject
Method: In some embodiments, a unit dosage form described herein that comprises compound I-1, or a pharmaceutically acceptable salt thereof, upon oral administration to a human subject in a daily dose of 20 mg, 50 mg, 100 mg, 200 mg, 400 mg, 700 mg, or 1200 mg (or about such doses, as the case may be), provides a pharmacokinetic result shown in the table below:
In some embodiments, the human subject is a healthy human subject.
In some embodiments, the pharmacokinetic result described herein is obtained in a healthy human subject.

Oral absorption = format: in vivo
Text: (§1) Aldehydes are toxic molecules due to their propensity to covalently attach to proteins and other target molecules containing certain reactive chemical groups. Drugs that detoxify reactive aldehydes are under development for various inflammatory conditions characterized by the excessive formation of aldehydes. […] This clinical trial will investigate the safety and biochemical efficacy of systemic administration of Compound 1 in SLS.

[2] = test system: cultured Chinese hamster cells lacking FALDH; test: Fatty aldehyde adducts, cytotoxicity and metabolism in cultured FALDH-deficient cells; format: cell-based
Text: as §1
There are no satisfactory animal models of SLS, thereby limiting preclinical testing to in vitro cellular studies. […] The detoxified ADX-102-fatty aldehyde by-products are degraded intracellularly. Thus, treatment of cultured FALDH-deficient cells with ADX-102 bypasses the lost catabolic function of FALDH on aldehydes in SLS and diminishes aldehyde load.

[3] = test system: cultured Chinese hamster cells lacking FALDH; conditions: cultured FALDH-deficient cells; long-chain (C16-C18) fatty aldehydes; cited from earlier work
SLS subjects = conditions: applied topically as a cream; cited from earlier work
[4] = test system: allergic conjunctivitis and dry eye; conditions: ophthalmic preparation, Phase-2; cited from earlier work

AUCinf ([1]; daily dose 20 mg (or about)): 50.0 ng·h/mL
Cmax ([1]; daily dose 20 mg (or about)): 26.4 ng/mL
AUCinf ([1]; daily dose 50 mg (or about)): 156 ng·h/mL
Cmax ([1]; daily dose 50 mg (or about)): 56.7 ng/mL
AUCinf ([1]; daily dose 100 mg (or about)): 433 ng·h/mL
Cmax ([1]; daily dose 100 mg (or about)): 140 ng/mL
t1/2 ([1]; daily dose 100 mg (or about)): ~3.52 h
AUCinf ([1]; daily dose 200 mg (or about)): 1140 ng·h/mL
Cmax ([1]; daily dose 200 mg (or about)): 459 ng/mL
t1/2 ([1]; daily dose 200 mg (or about)): ~6.04 h
AUCinf ([1]; daily dose 400 mg (or about)): 2730 ng·h/mL
Cmax ([1]; daily dose 400 mg (or about)): 869 ng/mL
t1/2 ([1]; daily dose 400 mg (or about)): ~6.15 h
AUCinf ([1]; daily dose 700 mg (or about)): 6710 ng·h/mL
Cmax ([1]; daily dose 700 mg (or about)): 2020 ng/mL
t1/2 ([1]; daily dose 700 mg (or about)): ~7.33 h
AUCinf ([1]; daily dose 1200 mg (or about)): 14500 ng·h/mL
Cmax ([1]; daily dose 1200 mg (or about)): 4220 ng/mL
t1/2 ([1]; daily dose 1200 mg (or about)): ~7.69 h
oral absorption (Oral absorption): well-absorbed orally
SMILES: CC(C)(O)c1nc2ccccc2cc1N [Compound I-1]

SMILES: CC(C)(O)c1nc2ccc(Cl)cc2cc1N [ADX-102, 2-[3-amino-6-chloro-quinolin-2-yl]-propan-2-ol]
fatty aldehyde cytotoxicity and apoptosis [2]: mitigate aldehyde cytotoxicity; also recorded: reverses fatty aldehyde cytotoxicity and apoptosis
metabolism of fatty aldehyde to fatty alcohol ([2]; C18:0, octadecanal, data not shown): prevent metabolism of fatty aldehydes to fatty alcohols; also recorded: blocks the metabolism of fatty aldehyde (C18:0, octadecanal) to fatty alcohol
effect on synthesis or degradation of fatty alcohol itself ([2]; data not shown): no effect
oral absorption (Oral absorption): poor absorption qualities
formation of fatty aldehyde covalent adducts with PE (NAPE) / cellular lipids [3]: block the formation of long-chain (C16-C18) fatty aldehyde adducts with cellular lipids; also recorded: prevents fatty aldehydes from forming covalent adducts with PE (NAPE)
ichthyosis (SLS subjects): improve ichthyosis
clinical activity in allergic conjunctivitis and dry eye [4]: beneficial activity
